Assay results as given in the NIST ThermoML archive (doi:10.1016/j.jct.2014.05.014).

Experiment: cn = amount concentration of the nth substance listed, in mol/dm3
Details: 101.3 kPa, Liquid; for electrical conductivity: Alternating current cell with electrodes; for viscosity: Falling or rolling sphere viscometry; for mass density: Vibrating tube method

CC(N)C(=O)[O-].[K+] (stereo not drawn) [potassium DL-alaninate] + O
Details | electrical conductivity [S/m] | mass density [kg/m3] | viscosity [mPa·s]
303.15 K, c1 = 0.495 | – | 1024.1 | –
303.15 K, c1 = 0.514 | – | – | 0.942
303.15 K, c1 = 0.526 | 3.96 | – | –
303.15 K, c1 = 1.009 | 6.63 | – | –
303.15 K, c1 = 1.014 | – | 1051.7 | –
303.15 K, c1 = 1.029 | – | – | 1.118
303.15 K, c1 = 1.499 | 8.42 | – | –
303.15 K, c1 = 1.509 | – | 1078.7 | –
303.15 K, c1 = 1.524 | – | – | 1.342
303.15 K, c1 = 1.954 | – | 1103.2 | –
303.15 K, c1 = 1.999 | – | – | 1.6
303.15 K, c1 = 2.018 | 9.49 | – | –
303.15 K, c1 = 2.501 | 9.88 | – | –
303.15 K, c1 = 2.507 | – | 1131.4 | –
303.15 K, c1 = 2.522 | – | – | 1.964
303.15 K, c1 = 2.988 | – | 1155.8 | –
303.15 K, c1 = 3.046 | 9.87 | – | –
303.15 K, c1 = 3.048 | – | – | 2.422
303.15 K, c1 = 3.497 | 9.58 | – | –
303.15 K, c1 = 3.499 | – | 1181 | –
308.15 K, c1 = 0.495 | – | 1022.4 | –
308.15 K, c1 = 0.514 | – | – | 0.845
308.15 K, c1 = 0.526 | 4.34 | – | –
308.15 K, c1 = 1.009 | 7.25 | – | –
308.15 K, c1 = 1.014 | – | 1049.8 | –
308.15 K, c1 = 1.029 | – | – | 1.009
308.15 K, c1 = 1.499 | 9.18 | – | –
308.15 K, c1 = 1.509 | – | 1076.7 | –
308.15 K, c1 = 1.524 | – | – | 1.203
308.15 K, c1 = 1.954 | – | 1101.1 | –
308.15 K, c1 = 1.999 | – | – | 1.429
308.15 K, c1 = 2.018 | 10.4 | – | –
308.15 K, c1 = 2.501 | 10.8 | – | –
308.15 K, c1 = 2.507 | – | 1129.2 | –
308.15 K, c1 = 2.522 | – | – | 1.745
308.15 K, c1 = 2.988 | – | 1153.4 | –
308.15 K, c1 = 3.046 | 10.9 | – | –
308.15 K, c1 = 3.048 | – | – | 2.135
308.15 K, c1 = 3.497 | 10.6 | – | –
308.15 K, c1 = 3.499 | – | 1178.4 | –
313.15 K, c1 = 0.495 | – | 1020.5 | –
313.15 K, c1 = 0.514 | – | – | 0.769
313.15 K, c1 = 0.526 | 4.73 | – | –
313.15 K, c1 = 1.009 | 7.84 | – | –
313.15 K, c1 = 1.014 | – | 1047.7 | –
313.15 K, c1 = 1.029 | – | – | 0.909
313.15 K, c1 = 1.499 | 9.94 | – | –
313.15 K, c1 = 1.509 | – | 1074.5 | –
313.15 K, c1 = 1.524 | – | – | 1.093
313.15 K, c1 = 1.954 | – | 1098.8 | –
313.15 K, c1 = 1.999 | – | – | 1.29
313.15 K, c1 = 2.018 | 11.2 | – | –
313.15 K, c1 = 2.501 | 11.8 | – | –
313.15 K, c1 = 2.507 | – | 1126.8 | –
313.15 K, c1 = 2.522 | – | – | 1.569
313.15 K, c1 = 2.988 | – | 1150.9 | –
313.15 K, c1 = 3.046 | 11.8 | – | –
313.15 K, c1 = 3.048 | – | – | 1.907
313.15 K, c1 = 3.497 | 11.6 | – | –
313.15 K, c1 = 3.499 | – | 1175.8 | –
318.15 K, c1 = 0.495 | – | 1018.4 | –
318.15 K, c1 = 0.514 | – | – | 0.705
318.15 K, c1 = 0.526 | 5.12 | – | –
318.15 K, c1 = 1.009 | 8.45 | – | –
318.15 K, c1 = 1.014 | – | 1045.6 | –
318.15 K, c1 = 1.029 | – | – | 0.83
318.15 K, c1 = 1.499 | 10.7 | – | –
318.15 K, c1 = 1.509 | – | 1072.3 | –
318.15 K, c1 = 1.524 | – | – | 1
318.15 K, c1 = 1.954 | – | 1096.5 | –
318.15 K, c1 = 1.999 | – | – | 1.17
318.15 K, c1 = 2.018 | 12.1 | – | –
318.15 K, c1 = 2.501 | 12.7 | – | –
318.15 K, c1 = 2.507 | – | 1124.3 | –
318.15 K, c1 = 2.522 | – | – | 1.426
318.15 K, c1 = 2.988 | – | 1148.3 | –
318.15 K, c1 = 3.046 | 12.8 | – | –
318.15 K, c1 = 3.048 | – | – | 1.712
318.15 K, c1 = 3.497 | 12.6 | – | –
318.15 K, c1 = 3.499 | – | 1173.1 | –
323.15 K, c1 = 0.495 | – | 1016.2 | –
323.15 K, c1 = 0.514 | – | – | 0.644
323.15 K, c1 = 0.526 | 5.5 | – | –
323.15 K, c1 = 1.009 | 9.06 | – | –
323.15 K, c1 = 1.014 | – | 1043.4 | –
323.15 K, c1 = 1.029 | – | – | 0.76
323.15 K, c1 = 1.499 | 11.5 | – | –
323.15 K, c1 = 1.509 | – | 1069.9 | –
323.15 K, c1 = 1.524 | – | – | 0.922
323.15 K, c1 = 1.954 | – | 1094.2 | –
323.15 K, c1 = 1.999 | – | – | 1.069
323.15 K, c1 = 2.018 | 12.9 | – | –
323.15 K, c1 = 2.501 | 13.7 | – | –
323.15 K, c1 = 2.507 | – | 1121.8 | –
323.15 K, c1 = 2.522 | – | – | 1.301
323.15 K, c1 = 2.988 | – | 1145.7 | –
323.15 K, c1 = 3.046 | 13.9 | – | –
323.15 K, c1 = 3.048 | – | – | 1.549
323.15 K, c1 = 3.497 | 13.7 | – | –
323.15 K, c1 = 3.499 | – | 1170.3 | –
328.15 K, c1 = 0.495 | – | 1013.9 | –
328.15 K, c1 = 0.514 | – | – | 0.596
328.15 K, c1 = 0.526 | 5.89 | – | –
328.15 K, c1 = 1.009 | 9.68 | – | –
328.15 K, c1 = 1.014 | – | 1041 | –
328.15 K, c1 = 1.029 | – | – | 0.703
328.15 K, c1 = 1.499 | 12.2 | – | –
328.15 K, c1 = 1.509 | – | 1067.4 | –
328.15 K, c1 = 1.524 | – | – | 0.854
328.15 K, c1 = 1.954 | – | 1091.5 | –
328.15 K, c1 = 1.999 | – | – | 0.985
328.15 K, c1 = 2.018 | 13.8 | – | –
328.15 K, c1 = 2.501 | 14.6 | – | –
328.15 K, c1 = 2.507 | – | 1119 | –
328.15 K, c1 = 2.522 | – | – | 1.201
328.15 K, c1 = 2.988 | – | 1143 | –
328.15 K, c1 = 3.046 | 14.9 | – | –
328.15 K, c1 = 3.048 | – | – | 1.413
328.15 K, c1 = 3.497 | 14.7 | – | –
328.15 K, c1 = 3.499 | – | 1167.5 | –
333.15 K, c1 = 0.495 | – | 1011.5 | –
333.15 K, c1 = 0.514 | – | – | 0.547
333.15 K, c1 = 0.526 | 6.27 | – | –
333.15 K, c1 = 1.009 | 10.3 | – | –
333.15 K, c1 = 1.014 | – | 1038.5 | –
333.15 K, c1 = 1.029 | – | – | 0.649
333.15 K, c1 = 1.499 | 13 | – | –
333.15 K, c1 = 1.509 | – | 1064.9 | –
333.15 K, c1 = 1.524 | – | – | 0.799
333.15 K, c1 = 1.954 | – | 1088.8 | –
333.15 K, c1 = 1.999 | – | – | 0.902
333.15 K, c1 = 2.018 | 14.6 | – | –
333.15 K, c1 = 2.501 | 15.5 | – | –
333.15 K, c1 = 2.507 | – | 1116.3 | –
333.15 K, c1 = 2.522 | – | – | 1.104
333.15 K, c1 = 2.988 | – | 1140.2 | –
333.15 K, c1 = 3.046 | 15.8 | – | –
333.15 K, c1 = 3.048 | – | – | 1.286
333.15 K, c1 = 3.497 | 15.7 | – | –
333.15 K, c1 = 3.499 | – | 1164.6 | –
338.15 K, c1 = 0.495 | – | 1008.9 | –
338.15 K, c1 = 0.514 | – | – | 0.507
338.15 K, c1 = 0.526 | 6.64 | – | –
338.15 K, c1 = 1.009 | 10.8 | – | –
338.15 K, c1 = 1.014 | – | 1035.9 | –
338.15 K, c1 = 1.029 | – | – | 0.602
338.15 K, c1 = 1.499 | 13.8 | – | –
338.15 K, c1 = 1.509 | – | 1062.1 | –
338.15 K, c1 = 1.524 | – | – | 0.742
338.15 K, c1 = 1.954 | – | 1086.1 | –
338.15 K, c1 = 1.999 | – | – | 0.83
338.15 K, c1 = 2.018 | 15.5 | – | –
338.15 K, c1 = 2.501 | 16.4 | – | –
338.15 K, c1 = 2.507 | – | 1113.5 | –
338.15 K, c1 = 2.522 | – | – | 1.015
338.15 K, c1 = 2.988 | – | 1137.3 | –
338.15 K, c1 = 3.046 | 16.8 | – | –
338.15 K, c1 = 3.048 | – | – | 1.176
338.15 K, c1 = 3.497 | 16.7 | – | –
338.15 K, c1 = 3.499 | – | 1161.6 | –
343.15 K, c1 = 0.495 | – | 1006.3 | –
343.15 K, c1 = 0.514 | – | – | 0.475
343.15 K, c1 = 0.526 | 7.02 | – | –
343.15 K, c1 = 1.009 | 11.4 | – | –
343.15 K, c1 = 1.014 | – | 1033.1 | –
343.15 K, c1 = 1.029 | – | – | 0.563
343.15 K, c1 = 1.499 | 14.5 | – | –
343.15 K, c1 = 1.509 | – | 1059.4 | –
343.15 K, c1 = 1.524 | – | – | 0.693
343.15 K, c1 = 1.954 | – | 1083.4 | –
343.15 K, c1 = 1.999 | – | – | 0.77
343.15 K, c1 = 2.018 | 16.3 | – | –
343.15 K, c1 = 2.501 | 17.4 | – | –
343.15 K, c1 = 2.507 | – | 1110.5 | –
343.15 K, c1 = 2.522 | – | – | 0.94
343.15 K, c1 = 2.988 | – | 1134.4 | –
343.15 K, c1 = 3.046 | 17.8 | – | –
343.15 K, c1 = 3.048 | – | – | 1.087
343.15 K, c1 = 3.497 | 17.7 | – | –
343.15 K, c1 = 3.499 | – | 1158.6 | –
